Test [1] concerns the target T1, mevalonate kinase (MK) (Streptococcus pneumoniae, UniProt A0A0H2UNK6). Conditions: read-out: Ki (binding to the allosteric site of mevalonate kinase); S. pneumoniae MK; background, Andreassi et al. 2004; cited from earlier work.
Test [2] has as its target T2, mammalian DPM decarboxylase (Homo sapiens, UniProt P53602).
T2 sequence (P53602 1-400): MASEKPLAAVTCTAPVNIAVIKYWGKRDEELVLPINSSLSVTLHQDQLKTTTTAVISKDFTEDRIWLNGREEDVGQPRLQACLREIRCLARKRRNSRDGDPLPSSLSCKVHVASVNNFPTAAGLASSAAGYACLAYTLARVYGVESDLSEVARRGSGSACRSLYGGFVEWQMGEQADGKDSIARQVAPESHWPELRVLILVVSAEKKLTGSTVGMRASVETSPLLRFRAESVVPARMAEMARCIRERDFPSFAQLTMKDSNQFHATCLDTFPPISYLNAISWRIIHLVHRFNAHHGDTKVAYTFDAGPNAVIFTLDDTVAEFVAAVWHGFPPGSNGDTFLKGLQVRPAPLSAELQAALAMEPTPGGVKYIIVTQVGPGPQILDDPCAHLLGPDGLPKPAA
Conditions: cited from earlier work; for Km: substrate of mammalian DPM decarboxylase.

Test [3] addresses T3, DPM-DC (Streptococcus pneumoniae, UniProt A0A0H2UNP0).
T3 sequence (A0A0H2UNP0 1-317): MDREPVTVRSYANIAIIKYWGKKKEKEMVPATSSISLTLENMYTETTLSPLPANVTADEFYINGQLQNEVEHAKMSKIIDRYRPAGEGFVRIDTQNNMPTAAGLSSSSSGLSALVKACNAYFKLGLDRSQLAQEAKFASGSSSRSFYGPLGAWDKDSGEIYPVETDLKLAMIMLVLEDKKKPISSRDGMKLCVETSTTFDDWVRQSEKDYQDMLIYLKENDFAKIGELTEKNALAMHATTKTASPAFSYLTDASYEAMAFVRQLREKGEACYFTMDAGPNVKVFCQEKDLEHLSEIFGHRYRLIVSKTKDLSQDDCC
As to the kind of experiment: DPM binding to DPM-DC by intrinsic fluorescence. As for the experimental part: FIG. 5. DPM Binding to DPM-DC. Conditions: DPM-DC (0.10 μM); MgCl2 (1.0 mM); β-Me (2.0 mM); KCl (50 mM); Glycerol (0.5% v/v); Hepes (50 mM, pH 8.0); T=25 (±2)° C.
This spectroscopic handle can be used to determine the affinities of the inhibitors described in this proposal and to explore the mechanism of DPM-DC. […] As a tool to study mechanism, the DPM-induced fluorescence changes can monitor, by stopped-flow, the progress of the binding reactions. The concentration dependencies of such measurements yield microscopic rate constants, which, in turn, provide ground and transition-state energetics for a particular step in the reaction coordinate. In favorable cases, fluorescence changes occur subsequent to binding as consequence of other structural changes that occur during the catalytic cycle—such is the case with DPM-DC. These changes can be assigned to bond-cleavage steps using by monitoring chemistry in the presteady-state by quenched-flow.

Test [4] deals with T1, mevalonate kinase (MK). The experiment in a line: Equilibrium binding of DPM to MK.
In test [5] the target is T4, human mevalonate kinase (Homo sapiens, UniProt Q03426).
T4 construct: made in house
T4 sequence (Q03426 whole entry): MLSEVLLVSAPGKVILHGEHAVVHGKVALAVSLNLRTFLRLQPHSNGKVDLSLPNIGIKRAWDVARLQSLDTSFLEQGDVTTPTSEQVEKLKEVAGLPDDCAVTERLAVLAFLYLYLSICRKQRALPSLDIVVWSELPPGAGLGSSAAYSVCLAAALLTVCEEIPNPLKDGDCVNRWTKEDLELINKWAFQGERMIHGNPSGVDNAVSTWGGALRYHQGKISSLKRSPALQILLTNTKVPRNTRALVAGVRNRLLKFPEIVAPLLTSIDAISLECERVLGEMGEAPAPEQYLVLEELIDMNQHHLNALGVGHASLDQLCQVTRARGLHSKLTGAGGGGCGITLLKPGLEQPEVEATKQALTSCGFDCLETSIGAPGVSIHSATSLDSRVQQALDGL
Conditions: background; cited from earlier work.

The target in test [6] is T1, mevalonate kinase (MK). As to the kind of experiment: Initial-rate inhibition of S. pneumoniae mevalonate kinase. The format is biochemical. On the procedure:
Regulation of the isoprenoid biosynthetic pathway in S. pneumoniae was discovered during an attempt to enzymatically synthesize DPM from ATP and mevalonate using MK and PMK. Individually, either enzyme is capable of quantitative conversion of substrate to product. However, when the enzymes are added simultaneously, the forward reaction decelerates rapidly and little product is formed. […] Thus, this nearly pure noncompetitive inhibitor binds at a site that is physically distinct from the substrate binding sites—an allosteric site. […] The stoichiometry was confirmed by NMR titration. […] Down-regulation of this pathway is quite specific for DPM.
(§1) The findings that mevalonate-pathway S. pneumoniae mutants cannot survive in mouse lung or serum validated this pathway as an antibiotic target in animal models. Acting on the hypothesis that the primary sequence differences of the mammalian and streptococcal MKs might produce different DPM-inhibition characteristics, the human enzyme was cloned, expressed, purified and tested for DPM inhibition. The effect of DPM on the initial rate of the human and streptococcal enzymes was assessed using samples with matched catalytic poise ([substrates]˜Km, equivalent Vm).
(§2) Several compounds were designed to inhibit DPM-DC and control cholesterol biosynthesis. In one such compound, each of the C6-methyl protons of mevalonate are replaced with fluorine (6,6,6-trifluoromevalonate, F3-mev). Given DPM inhibition of MK, and excellent inhibition of rat liver DPM-DC by F3-DPM (Ki=0.5 μM) it was hoped that F3-DPM might inhibit both MK and DPM-DC from S. pneumoniae, and, if so, be used as a bacteriostatic or bacteriocidal agent. […] Encouraged, F3-DPM was tested as an antibiotic against S. pneumoniae. To avoid the possible obstacles of phosphatase degradation of DPM and transporting a highly charged anion across the cell wall, a prodrug strategy that relies on conversion of F3-mev to F3-DPM in the cytosol was used. F3-mev conversion to F3-DPM and consequent inhibition of DPM-DC occurs in rat liver extracts. The linear and lactone forms of statins, which target an early step in the isoprenoid pathway, show widely different potencies; consequently, both forms of F3-mev were tested as inhibitors. Serial dilutions of F3-mev were added to Meuller-Hinton Broth, a horse-blood based medium, containing ˜7.5×10^7 cells of either an infectious (ATCC 49619) or non-infectious (R6) strain of S. pneumoniae. The cultures containing F3-mev were incubated for 24 hours at 35° C. and plated to assess viability. The linear form of F3-mev had little effect; confluent growth was observed on all plates; in contrast, the lactone is clearly a bacteriocide—less than 0.0001% of either strain survived at 100-200 μg/ml of the lactone. […]

Test [7] concerns the target T4, human mevalonate kinase. The experiment in a line: DPM inhibition of human mevalonate kinase (initial rate). It is filed as biochemical. Conditions: at DPM concentrations that essentially completely inhibit the streptococcal system; [substrates]~Km. On the procedure: as §1
For a further test, the target named is T5, rat liver DPM-DC (Rattus norvegicus, UniProt Q62967).
T5 construct: host or cells: rat liver
T5 sequence (Q62967 1-401): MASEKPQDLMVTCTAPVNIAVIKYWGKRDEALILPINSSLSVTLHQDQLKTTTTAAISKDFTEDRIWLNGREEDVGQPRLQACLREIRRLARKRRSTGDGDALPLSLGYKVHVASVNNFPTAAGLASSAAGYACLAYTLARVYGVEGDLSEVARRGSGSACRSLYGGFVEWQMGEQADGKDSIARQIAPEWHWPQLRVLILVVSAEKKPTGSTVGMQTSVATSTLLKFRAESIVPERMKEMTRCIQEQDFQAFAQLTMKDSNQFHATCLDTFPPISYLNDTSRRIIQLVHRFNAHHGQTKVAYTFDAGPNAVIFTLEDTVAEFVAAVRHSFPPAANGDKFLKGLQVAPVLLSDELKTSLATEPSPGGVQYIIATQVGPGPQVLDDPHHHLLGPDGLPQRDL
Conditions: cited from earlier work.

In test [8] the target is DPM-DC (Streptococcus pneumoniae, UniProt Q9FD53). The experiment in a line: Inhibition of S. pneumoniae DPM-DC. Conditions: DPM-DC from S. pneumoniae. It is filed as biochemical.
Chain of DPM-DC (Streptococcus pneumoniae, UniProt Q9FD53) (Q9FD53 entry or part of it): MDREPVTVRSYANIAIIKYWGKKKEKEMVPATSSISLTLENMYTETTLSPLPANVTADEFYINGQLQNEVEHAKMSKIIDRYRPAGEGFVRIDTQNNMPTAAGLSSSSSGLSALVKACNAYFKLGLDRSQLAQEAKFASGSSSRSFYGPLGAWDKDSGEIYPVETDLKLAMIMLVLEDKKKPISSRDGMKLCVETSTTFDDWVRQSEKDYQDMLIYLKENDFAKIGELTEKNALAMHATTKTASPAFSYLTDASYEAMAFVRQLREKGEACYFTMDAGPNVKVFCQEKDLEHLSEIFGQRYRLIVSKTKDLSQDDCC
The test system of test [9] is S. pneumoniae (ATCC 49619, R6). As to the kind of experiment: Antibiotic test: broth culture, plated to assess viability. It is filed as cell-based, Streptococcus pneumoniae. Conditions: serial dilutions; 24 hours at 35° C.; ATCC 49619 or R6. On the procedure: as §2, with “viability.” for “viability. The linear form of F3-mev had little effect; confluent growth was observed on all plates; in contrast, the lactone is clearly a bacteriocide—less than 0.0001% of either strain survived at 100-200 μg/ml of the lactone.”

In another test the target is T6, mevalonate kinase (Streptococcus pneumoniae, UniProt A0A0H2UNK6).
T6 sequence (A0A0H2UNK6 1-292): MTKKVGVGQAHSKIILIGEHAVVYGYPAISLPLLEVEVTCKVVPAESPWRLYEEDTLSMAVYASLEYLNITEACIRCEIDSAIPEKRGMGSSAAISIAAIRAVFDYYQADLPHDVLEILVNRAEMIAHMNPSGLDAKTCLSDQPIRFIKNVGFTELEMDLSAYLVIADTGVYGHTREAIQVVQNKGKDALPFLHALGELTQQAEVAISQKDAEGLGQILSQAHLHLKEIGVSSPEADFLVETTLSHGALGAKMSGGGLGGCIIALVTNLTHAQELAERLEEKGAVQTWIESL
As to the kind of experiment: Initial substrate results of analogues with mevalonate kinase (FIG. 8). It is filed as biochemical. Conditions: [ATP]=0.85 mM. On the procedure:
FIG. 8. Initial substrate results [analogue] ranged from 2.0-2.5 mM, except #6 (4.2 mM) and #8 (6.2 mM).
A series of compounds related to compounds 4, 5, 23, and 25 can be synthesized as potential competitive or noncompetitive reversible inhibitors of MK and DPM-DC (See, e.g., FIGS. 6-7). The representative synthesis shown (Scheme 4a) is a modification of that shown in Scheme 4, and R is limited only by availability of the corresponding reagent and synthetic technique, as would be understood by those skilled in the art made aware of this invention (e.g., alkyl, vinyl, acetylenyl, aryl, heteroaryl, etc., via Grignard reaction with the corresponding magnesium bromide or chloride).

Test [10] deals with incorporation of mevalonate into nonsaponifiable lipids. Conditions: rat liver extracts; relative to F3-mev; cited from earlier work.
Test [11] has as its target T3, DPM-DC. Conditions: cited from earlier work.
The subject of the next test is MK. Conditions: producing 6-fluoroDPM; cited from earlier work.
In the next test the test system is PMK. Conditions: producing 6-fluoroDPM; cited from earlier work.

The structures appear in SMILES notation. Entries after “also recorded” stand apart in the source; their conditions may differ. Where two headings read alike, the source gives them in different places.

Turning to `C[C@@](O)(CCOP(=O)(O)OP(=O)(O)O)CC(=O)O` [DPM, Diphosphomevalonate], the Ki at mevalonate kinase (MK) [1] was 0.4 µM; on mevalonate kinase (MK) [6], 0.5 µM. The Michaelis constant (Km) in [2] was 15 µM. The Kd on DPM-DC [3] is 0.54 µM; at mevalonate kinase (MK) [4] (Kd DPM, quoted for the NMR titration of MK), 0.5 µM; at mevalonate kinase (MK) [4] (affinity of DPM for apo (E) form of the enzyme, apo (E)), 0.63 µM; at mevalonate kinase (MK) [4] (affinity of DPM for ternary (E.AMPPNP.mev) form of the enzyme, ternary (E.AMPPNP.mev)) it was 0.53 µM. The “change in the intrinsic fluorescence of DPM-DC” value on DPM-DC [3] (on binding of DPM) worked out at 1.5 fold. At mevalonate kinase (MK) [4] (enzyme is a dimer), this molecule yielded a binding stoichiometry of 0.5 DPM/active site. At human mevalonate kinase [5], the “effect of DPM on human mevalonate kinase isozyme” value was “not affected”. Also, the “turnover reduced to” value at mevalonate kinase (MK) [6] (DPM bound to MK) is on record as “less than 0.5%”. For the same molecule, on mevalonate kinase (MK) [6] (vs substrates), the “inhibition mechanism (initial-rate study)” value is on record as “noncompetitively”. Moreover, the “effect of DPM on human MK” value on human mevalonate kinase [7] is recorded as “virtually unaffected; also recorded: insensitive”.
As to `O=C(O)CC(O)(CCOP(=O)(O)OP(=O)(O)O)C(F)(F)F` (stereo not drawn) [F3-DPM], the Ki at rat liver DPM-DC (rat liver) was 0.5 µM; at DPM-DC [8], 0.05 µM; on mevalonate kinase (MK) [6] (MK from S. pneumoniae, read-out: Ki (MK)) it was 0.57 µM.
In the case of `CCC(O)(CCOP(=O)(O)OP(=O)(O)O)CC(=O)O` (stereo not drawn) [compound 14], the Km in test [2] (read-out: Km) was 33 µM. In addition, in test [2] (that of DPM), the “kcat relative to DPM” value was 32%.
For the molecule `O=C(O)CC(O)(CCO)C(F)(F)F` (stereo not drawn) [linear form of F3-mev, 6,6,6-trifluoromevalonate], the “effect on viability (growth on plates)” value in [9] is “little effect”.
Regarding `CC(O)(CCO)CC(=O)O` (stereo not drawn) [mevalonate], the kcat at mevalonate kinase is listed as 227 s^1.
For the molecule `O=C(O)CC(O)(CF)CCO` (stereo not drawn) [mono-fluoro derivative, 6-Fluoromevalonic acid], at rat liver DPM-DC (rat liver extracts), the “better inhibitor of DPM-DC (relative to F3 analogue)” value was 50 fold. For the same molecule, the “more effective than F3-mev in inhibiting incorporation of mevalonate into nonsaponifiable lipids” value in test [10] is recorded as 50 times. Also, the decrease in turnover at DPM-DC [11] (mono-fluoro substitution at C6) was 2500 fold. The turnover at DPM-DC [11] (substrate of DPM-DC) was 0.19 min⁻¹. For the same molecule, the “turnover relative to the native compound” value on DPM-DC [11] (vs DPM) is on record as 0.04%. The “substrate for MK (in words)” value in the test with MK was “substrate”. Moreover, in the test on PMK, the “substrate for PMK (in words)” value is reported as “substrate”.

Source of the values: US8710032B2, “Inhibitors of the mevalonate pathway of Streptococcus pneumoniae” (Northwestern University, priority 2006, dated 2014).
